The results in this text go back to patent publication US20110152093A1, “Herbicidal compositions comprising flufenacet” (Bayer CropScience AG, priority 2009, published 2011).

What all share (format): in vivo
Assay [1] has as its system ALOMY resistant (Alopecurus myosuroides). Kind of assay: PE action on resistant weed biotypes, test method 8. The note with it: PE application; g of AS/ha: (A) 90, (B) 1200, (C) 140, (A)+(B)+(C) 90 + 1200 + 140, iodosulfuron 10. Here is the method:
(§1) In the standard design of the test, seeds of various broad-leaved weed and weed grass biotypes (origins) were sown in a 8-13 cm diameter pot filled with natural soil of a standard field soil (loamy silt; non-sterile) and covered with a covering soil layer of about 1 cm. The pots were then cultivated in a greenhouse (12-16 h of light, temperature day 20-22° C., night 15-18° C.) until the time of application. The pots were treated on a laboratory track sprayer with spray liquors comprising the compositions according to the invention, mixtures of the prior art or components used individually. Application of the active compounds or active compound combinations formulated as WG, WP, EC or otherwise was carried out at the appropriate growth stages of the plants. The application rate for the spray application was 100-600 l of water/ha. After the treatment, the plants were returned to the greenhouses.
(§2) About 3 weeks after the application, the soil action or/and foliar action was assessed visually according to a scale of 0-100% in comparison to an untreated comparative group: 0%=no noticeable effect compared to the untreated comparative group; 100%=full effect compared to the untreated comparative group.
(§3) (notes: the term “seeds” also includes vegetative propagation forms such as, for example, rhizome pieces; abbreviations used: h light=hours of illumination, g of AS/ha=gram of active substance per hectare, l/ha=liter per hectare, S=sensitive, R=resistant) • 1. Pre-emergence action against weeds: seeds of various broad-leaved weed and weed grass biotypes (origins) were sown in a 8-13 cm diameter pot filled with natural soil of a standard field soil (loamy silt; non-sterile) and covered with a covering soil layer of about 1 cm. The pots were then cultivated in a greenhouse (12-16 h of light, temperature day 20-22° C., night 15-18° C.) until the time of application. The pots were treated at the BBCH stage 00-10 of the seeds/plants on a laboratory track sprayer with spray liquors comprising the compositions according to the invention, mixtures or components used individually, as WG, WP, EC or other formulations. The application rate for the spray application was 100-600 l of water/ha. After the treatment, the plants were returned to the greenhouses and, when required, treated with fertilizer and watered. • 2. Post-emergence action against weeds: seeds of various broad-leaved weed and weed grass biotypes (origins) were sown in a 8-13 cm diameter pot filled with natural soil of a standard field soil (loamy silt; non-sterile) and covered with a covering soil layer of about 1 cm. The pots were then cultivated in a greenhouse (12-16 h of light, temperature day 20-22° C., night 15-18° C.) until the time of application. The pots were treated at various BBCH stages between 11-25 of the seeds/plants, i.e. generally between two to three weeks after the start of the cultivation, on a laboratory track sprayer with spray liquors comprising the compositions according to the invention, mixtures or components used individually, as WG, WP, EC or other formulations. The application rate for the spray application was 100-600 l of water/ha. After the treatment, the plants were returned to the greenhouses and, when required, treated with fertilizer and watered. • 3. Selective pre-emergence action: seeds of various crop species (origins) were sown in a 8-13 cm diameter pot filled with natural soil of a standard field soil (loamy silt; non-sterile) and covered with a covering soil layer of about 1 cm. The pots were then cultivated in a greenhouse (12-16 h of light, temperature day 20-22° C., night 15-18° C.) until the time of application. The pots were treated at the BBCH stage 00-10 of the seeds/plants on a laboratory track sprayer with spray liquors comprising the compositions according to the invention, mixtures or components used individually, as WG, WP, EC or other formulations. The application rate for the spray application was 100-600 l of water/ha. […]

In assay [2] the test system is ALOMY sensitive (Alopecurus myosuroides). The assay is described as above. The note with it: PE application; g of AS/ha: (A) 90, (B) 1200, (C) 140, (A)+(B)+(C) 90 + 1200 + 140, iodosulfuron 10. Here is the method:
as §1, §2, §3

A further assay concerns VIOAR (Viola arvensis). In words: Post-emergence (PO) action against weeds, greenhouse trial, test method 2. To be noted: PO application; g of AS/ha: (A) 240, (B) 1200, (C) 140, (A)+(B)+(C) 240 + 1200 + 140. Here is the method:
as §1, §2
(§4) (notes: the term “seeds” also includes vegetative propagation forms such as, for example, rhizome pieces; abbreviations used: h light=hours of illumination, g of AS/ha=gram of active substance per hectare, l/ha=liter per hectare, S=sensitive, R=resistant) • 1. Pre-emergence action against weeds: seeds of various broad-leaved weed and weed grass biotypes (origins) were sown in a 8-13 cm diameter pot filled with natural soil of a standard field soil (loamy silt; non-sterile) and covered with a covering soil layer of about 1 cm. The pots were then cultivated in a greenhouse (12-16 h of light, temperature day 20-22° C., night 15-18° C.) until the time of application. The pots were treated at the BBCH stage 00-10 of the seeds/plants on a laboratory track sprayer with spray liquors comprising the compositions according to the invention, mixtures or components used individually, as WG, WP, EC or other formulations. The application rate for the spray application was 100-600 l of water/ha. After the treatment, the plants were returned to the greenhouses and, when required, treated with fertilizer and watered. • 2. Post-emergence action against weeds: seeds of various broad-leaved weed and weed grass biotypes (origins) were sown in a 8-13 cm diameter pot filled with natural soil of a standard field soil (loamy silt; non-sterile) and covered with a covering soil layer of about 1 cm. The pots were then cultivated in a greenhouse (12-16 h of light, temperature day 20-22° C., night 15-18° C.) until the time of application. The pots were treated at various BBCH stages between 11-25 of the seeds/plants, i.e. generally between two to three weeks after the start of the cultivation, on a laboratory track sprayer with spray liquors comprising the compositions according to the invention, mixtures or components used individually, as WG, WP, EC or other formulations. The application rate for the spray application was 100-600 l of water/ha. After the treatment, the plants were returned to the greenhouses and, when required, treated with fertilizer and watered. • 3. […]

The subject of assay [3] is HORVS (Hordeum vulgare, summer barley). Kind of assay: Action under various soil conditions (soil types), test method 7, crop compatibility. To be noted: IU/EC73 soil versus IU soil; g of AS/ha: (A) 90, (B) 1200, (C) 140, (A)+(B)+(C) 90 + 1200 + 140. Here is the method:
as §1, §2, §4

Assay [4] relates to MATCH (Matricaria chamomilla). In words: Action under various soil conditions (soil types), test method 7. The note with it: g of AS/ha: (A) 90, (B) 1200, (C) 140, (A)+(B)+(C) 90 + 1200 + 140. Here is the method: as §1, §2, §3
The next assay concerns AVEFA (Avena fatua). Kind of assay: PE action at different soil pH values, test method 10. To be noted: PE application, g of AS/ha: (A) 90, (B) 1200, (C) 140, (A)+(B)+(C) 90 + 1200 + 140. The method, then:
as §1, §2

In assay [5] the test system is LOLPE (Lolium perenne). Kind of assay: Pre-sowing application action against weeds (7 days prior to sowing), test method 5. The note with it: application 7 days prior to sowing; g of AS/ha: (A) 90, (B) 1200, (C) 140, (A)+(B)+(C) 90 + 1200 + 140. Here is the method: as §1, §2
(notes: the term “seeds” also includes vegetative propagation forms such as, for example, rhizome pieces; abbreviations used: h light=hours of illumination, g of AS/ha=gram of active substance per hectare, l/ha=liter per hectare, S=sensitive, R=resistant) • 1. Pre-emergence action against weeds: seeds of various broad-leaved weed and weed grass biotypes (origins) were sown in a 8-13 cm diameter pot filled with natural soil of a standard field soil (loamy silt; non-sterile) and covered with a covering soil layer of about 1 cm. The pots were then cultivated in a greenhouse (12-16 h of light, temperature day 20-22° C., night 15-18° C.) until the time of application. The pots were treated at the BBCH stage 00-10 of the seeds/plants on a laboratory track sprayer with spray liquors comprising the compositions according to the invention, mixtures or components used individually, as WG, WP, EC or other formulations. The application rate for the spray application was 100-600 l of water/ha. After the treatment, the plants were returned to the greenhouses and, when required, treated with fertilizer and watered. • 2. Post-emergence action against weeds: seeds of various broad-leaved weed and weed grass biotypes (origins) were sown in a 8-13 cm diameter pot filled with natural soil of a standard field soil (loamy silt; non-sterile) and covered with a covering soil layer of about 1 cm. The pots were then cultivated in a greenhouse (12-16 h of light, temperature day 20-22° C., night 15-18° C.) until the time of application. […]

Assay [6] relates to HORVS (Hordeum vulgare, summer barley). Kind of assay: Selective post-emergence action (crop compatibility), greenhouse trial, test method 4. To be noted: PO application; g of AS/ha: (A) 240, (B) 1200, (C) 140, (A)+(B)+(C) 240 + 1200 + 140. Here is the method: as §1, §2
(notes: the term “seeds” also includes vegetative propagation forms such as, for example, rhizome pieces; abbreviations used: h light=hours of illumination, g of AS/ha=gram of active substance per hectare, l/ha=liter per hectare, S=sensitive, R=resistant) • 1. Pre-emergence action against weeds: seeds of various broad-leaved weed and weed grass biotypes (origins) were sown in a 8-13 cm diameter pot filled with natural soil of a standard field soil (loamy silt; non-sterile) and covered with a covering soil layer of about 1 cm. The pots were then cultivated in a greenhouse (12-16 h of light, temperature day 20-22° C., night 15-18° C.) until the time of application. […]

For assay [7], the system named is MATCH (Matricaria chamomilla). Kind of assay: PE action under various irrigation conditions, test method 6. To be noted: PE application; irrigation from below; g of AS/ha: (A) 90, (B) 1200, (C) 140, (A)+(B)+(C) 90 + 1200 + 140. Here is the method:
as §1, §2, §3

Assay [8] concerns LOLPE (Lolium perenne). The assay is described as above. To be noted: PE application, g of AS/ha: (A) 90, (B) 1200, (C) 140, (A)+(B)+(C) 90 + 1200 + 140. Here is the method:
as §1, §2, §3

Assay [9] concerns LOLSS sensitive (Lolium species). Kind of assay: PE action on resistant weed biotypes, test method 8. To be noted: PE application; g of AS/ha: (A) 90, (B) 1200, (C) 140, (A)+(B)+(C) 90 + 1200 + 140, iodosulfuron 10. Here is the method:
as §1, §2, §3

Molecules are shown by their SMILES.

On to `COc1nc(C)nc(NC(=O)NS(=O)(=O)c2cc(I)ccc2C(=O)O)n1` [(C)^1 iodosulfuron, iodosulfuron], for which the “activity ALOMY resistant” value in [1] amounted to 40%. The “activity ALOMY sensitive” value in assay [2] was 90%.

Consider `CC(C)N(C(=O)COc1nnc(C(F)(F)F)s1)c1ccc(F)cc1` [(A) flufenacet, N-(4-fluorophenyl)-N-(1-methylethyl)-2-[[5-(trifluoromethyl)-1,3,4-thiadiazol-2-yl]oxy]acetamide], for which the “activity VIOAR (visual, scale 0-100%)” value with VIOAR (Viola arvensis) is on record as 50%. Also, in assay [3], the “Difference of the soil types, HORVS” value is on record as −10%. The “activity MATCH IU soil” value in [4] (IU soil) was 28%. Moreover, the “Difference of the soil types, MATCH” value in assay [4] (IU/EC73 soil versus IU soil) was −23%. Moreover, the “activity MATCH IU/EC73 soil” value in assay [4] (IU/EC73 soil) turned out to be 5%. In the assay with AVEFA (Avena fatua) (soil pH 7.4), the “activity AVEFA pH 7.4” value worked out at 80%. In the assay with AVEFA (Avena fatua) (soil pH 8.4), the “activity AVEFA pH 8.4” value was determined as 55%. For the same compound, the “activity LOLPE” value in the assay with LOLPE (Lolium perenne) [5] came to 93%; with LOLPE (Lolium perenne) [8] (irrigation from above) it was 82%; with LOLPE (Lolium perenne) [8] (irrigation from below), 75%. Further, in [6], the “activity HORVS (crop plant; visual, scale 0-100%)” value is 60%. Further, in [7], the “activity MATCH” value came to 15%. Further, the “activity ALOMY resistant” value in assay [1] is on record as 68%. The “activity LOLSS sensitive” value in assay [9] was found to be 5%. Besides, the “activity ALOMY sensitive” value in assay [2] came to 80%.
